assay: method code SF-HPLC, from DOI: 10.1002/qsar.19910100205; details: pH 3.5

SMILES	logD
O=C1NC(=O)C(Cc2ccccc2)S1 (configuration not stated)	1.98
O=C1NC(=O)N(Cc2ccccc2)C1=O	1.19
O=C1CC(=O)N(Cc2ccccc2)C1	0.76
O=C1CC(=O)C(c2ccccc2)O1 (configuration not stated)	1.07
NS(=O)(=O)NC(=O)Cc1ccccc1	0.31
O=C1CC(=O)C(c2ccccc2)N1 (configuration not stated)	0.48
CC1(COc2ccc(CC3SC(=O)NC3=O)cc2)CCCCC1 (configuration not stated)	3.57
O=C1CS(=O)(=O)C(c2ccccc2)N1 (configuration not stated)	0.18

Further lines, results first:

logD	SMILES
0.54	O=C1CC(=O)N(c2ccccc2)O1
1.2	O=C1NC(=O)C(Cc2ccccc2)O1 (configuration not stated)
0.6	O=C1NC(=O)N(c2ccccc2)C1=O
1.68	O=c1[nH]c(=O)n(-c2ccccc2)o1
0.6	O=C1NC(=O)C(Cc2ccccc2)N1 (configuration not stated)
0.04	O=C1CNC(=O)N1c1ccccc1
0.76	O=C1CN(Cc2ccccc2)C(=O)N1
0.83	O=C1CN(c2ccccc2)C(=O)N1
1.09	O=C1NC(=O)C(c2ccccc2)O1 (configuration not stated)
